Results published in US20110207770A1, “PHARMACEUTICAL PRODUCT COMPRISING A MUSCARINIC RECEPTOR ANTAGONIST AND A SECOND ACTIVE INGREDIENT” (ASTRAZENECA AB, priority 2008, published 2011).
Like-named read-outs stand apart in the source and are kept apart here.

Key:
[1] = molecular target: T1, Recombinant human M3 receptor (Homo sapiens, UniProt P20309); test: Muscarinic Receptor Radioligand Binding Assay ([3H]-NMS, SPA)
T1 construct: expressed in transfected cells; host or cells: CHO-K1 cells (membranes prepared from them)
T1 sequence (P20309 whole entry): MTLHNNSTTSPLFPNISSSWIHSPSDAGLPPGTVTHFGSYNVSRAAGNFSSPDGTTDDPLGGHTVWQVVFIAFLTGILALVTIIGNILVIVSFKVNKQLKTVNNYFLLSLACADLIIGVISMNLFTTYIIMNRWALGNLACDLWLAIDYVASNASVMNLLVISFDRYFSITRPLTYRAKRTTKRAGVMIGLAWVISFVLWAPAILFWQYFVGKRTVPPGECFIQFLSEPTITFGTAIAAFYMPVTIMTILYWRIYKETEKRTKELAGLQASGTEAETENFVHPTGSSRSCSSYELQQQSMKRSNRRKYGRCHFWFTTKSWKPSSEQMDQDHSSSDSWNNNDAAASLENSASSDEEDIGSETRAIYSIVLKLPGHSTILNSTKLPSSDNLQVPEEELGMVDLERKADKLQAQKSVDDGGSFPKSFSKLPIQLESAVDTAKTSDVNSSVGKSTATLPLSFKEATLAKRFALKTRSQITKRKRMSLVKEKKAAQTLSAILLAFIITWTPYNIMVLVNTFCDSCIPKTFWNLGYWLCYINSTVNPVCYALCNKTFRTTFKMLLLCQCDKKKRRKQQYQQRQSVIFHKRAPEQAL
Method: The inhibitory effects of compounds of the muscarinic antagonists were determined by a Muscarinic Receptor Radioligand Binding Assay.
Recombinant human M3 receptor was expressed in CHO-K1 cells. Cell membranes were prepared and binding of [3H]-N-methyl scopolamine ([3H]-NMS) and compounds was assessed by a scintillation proximity assay (SPA). The incubation time was 16 hours at ambient temperature in the presence of 1% (v/v) DMSO. The assay was performed in white 96 well clear-bottomed NBS plates (Corning). Prior to the assay, the CHO cell membranes containing M3 receptor were coated onto SPA WGA (Wheat germ agglutinin) beads (GE Healthcare). Non specific binding was determined in the presence of 1 μM Atropine.
Radioactivity was measured on a Microbeta scintillation counter (PerkinElmer) using a 3H protocol with a 2 minutes per well read time. […] Concentration dependent inhibition of [3H]-NMS binding by compounds was expressed as pIC50.

[2] = Dynamic vapour sorption (DVS) analysis of crystalline form; format: physicochemical; details: at 80% RH, 25° C., crystalline material
Method: Dynamic vapour sorption (DVS) analysis was performed on a Surface Measurement systems (SMS) DVS-Intrinsic moisture sorption analyser. The instrument was controlled by SMS Analysis Suite software (DVS-Intrinsic Control v1.0.0.30). Analysis of the data was performed using Microsoft Excel 2007 together DVS Standard Analysis Suite (v6.0.0.7). Sample temperature was maintained at 25° C. and the sample humidity was obtained by mixing streams of wet and dry nitrogen at a total flow rate of 200 mlmin^−1. The relative humidity was measured using a calibrated Rotronic probe (dynamic range 1-100% Relative Humidity (RH)) located close to the sample. The weight change of the sample as a function of % RH was constantly monitored by the microbalance (accuracy ±0.005 mg). Typically a PXRD would be run prior to analysis. 20 mg of sample was then placed in a tared stainless steel mesh basket under ambient conditions. The sample was loaded and unloaded at 40% RH and 25° C. (typical room conditions) and the sample subjected to a graduated DVS regime over 2 cycles using the parameters shown in Table 1.

[3] = Gravimetric Vapour Sorption (GVS) of crystalline forms; format: physicochemical; details: at 80% RH, crystalline material
Method: Gravimetric Vapour Sorption (GVS) profiles were measured using a Surface Measurements Systems Dynamic Vapour Sorption DVS-1 or a DVS Advantage instrument. The solid sample ca. 1-5 mg was placed into a glass vessel and the weight of the sample was recorded during a dual cycle step method (40 to 90 to 0 to 90 to 0% relative humidity (RH), in steps of 10% RH).

[4] = CHO-K1 cell membranes, [3H]-NMS, 16 hours at ambient temperature, 1% DMSO, read-out: Ki in the M3 binding assay

Row | SMILES | Ki [1, 4] [nM] | further results
1 | O[C@](c1ccccc1)(c1nnc(C[N+]23CCC(CC2)[C@@H](Oc2ccc(F)cc2)C3)o1)C1CCCCC1 [Example 5, (R)-1-[5-((R)-Cyclohexyl-hydroxy-phenyl-methyl)-[1,3,4]oxadiazol-2-ylmethyl]-3-(4-fluoro-phenoxy)-1-azonia-bicyclo[2.2.2]octane bromide] | 0.7 | –
2 | O=S(=O)([O-])c1ccccc1.O[C@](c1ccccc1)(c1cc(C[N+]23CCC(CC2)[C@@H](Oc2ccc(F)cc2)C3)on1)C1CCCCC1 [Example 2, (R)-1-[3-((R)-Cyclohexyl-hydroxy-phenyl-methyl)-isoxazol-5-ylmethyl]-3-(4-fluoro-phenoxy)-1-azonia-bicyclo[2.2.2]octane benzenesulfonate] | – | DVS weight increase [2]: 0.2 % w/w
3 | O[C@](c1ccccc1)(c1cc(C[N+]23CCC(CC2)[C@@H](Oc2ccc(F)cc2)C3)on1)C1CCCCC1 [Example 1, (R)-1-[3-((R)-Cyclohexyl-hydroxy-phenyl-methyl)-isoxazol-5-ylmethyl]-3-(4-fluoro-phenoxy)-1-azonia-bicyclo[2.2.2]octane chloride] | 0.8 | –
4 | OC(c1ccccc1)(c1ccccc1)c1cc(C[N+]23CCC(CC2)[C@@H](Sc2cccc(F)c2)C3)on1 [Example 6, (R)-3-(3-Fluoro-phenylsulfanyl)-1-[3-(hydroxy-diphenyl-methyl)-isoxazol-5-ylmethyl]-1-azonia-bicyclo[2.2.2]octane bromide] | 0.15 | –
5 | Cc1ccc(O[C@H]2C[N+]3(Cc4cc(C(O)(c5ccccc5)c5ccccc5)no4)CCC2CC3)cc1F [Example 7, (R)-3-(3-Fluoro-4-methyl-phenoxy)-1-[3-(hydroxy-diphenyl-methyl)-isoxazol-5-ylmethyl]-1-azonia-bicyclo[2.2.2]octane bromide] | 0.4 | –
6 | O[C@](c1ccccc1)(c1cc(C[N+]23CCC(CC2)[C@@H](Oc2cccc(F)c2)C3)on1)C1CCCCC1 [Example 8, (R)-1-[3-((R)-Cyclohexyl-hydroxy-phenyl-methyl)-isoxazol-5-ylmethyl]-3-(3-fluoro-phenoxy)-1-azonia-bicyclo[2.2.2]octane 2-hydroxy-ethanesulfonate] | – | GVS mass increase [3]: 0.15%
7 | O[C@](c1ccccc1)(c1cc(C[N+]23CCC(CC2)[C@@H](Oc2cccc(F)c2)C3)on1)C1CCCCC1 [Example 3, (R)-1-[3-((R)-Cyclohexyl-hydroxy-phenyl-methyl)-isoxazol-5-ylmethyl]-3-(3-fluoro-phenoxy)-1-azonia-bicyclo[2.2.2]octane chloride] | – | Ki [1]: 0.66 nM
